Measurements from patent US20260021167A1, “COMPOSITIONS AND METHODS FOR TREATING OR PREVENTING NEURODEGENERATIVE DISEASES” (Delaware State University, priority 2022, published 2026).
Like-named read-outs stand apart in the source and are kept apart here.

Key:
Type in all cases: cell-based, rat
N27 cells [1] = experiment: Cytotoxicity (LDH) assay after PFF exposure
Protocol: (§1) Cytotoxicity Assay. The lactate dehydrogenase (LDH) is a cytosolic enzyme that is released into the media during cellular stress and increased levels of cytotoxicity. The cytotoxicity assay was measured using reagents from the Pierce LDH Cytotoxicity Assay Kit (88954, Thermo). For the assay, 50 μL of media from each well after PFF exposure, followed by SENP-1 treatment, was put into wells of a new 96-well plate. The LDH reagents were prepared according to the protocol provided, and 50 μL of the LDH reagent was mixed into each well. The total 100 μL of media containing LDH and its reagent were incubated at 37° C. for 30 min, followed by the application of a stop solution. The mixture was analyzed using a spectrophotometer (SpectraMax M5e, Molecular devices) at 490 nm with a reference wavelength of 680 nm.
In this study, numerous commercially available SENP-1 inhibitors were tested for the recovery effects from preformed fibrils of alpha-synuclein (PFF)-induced PD models in vitro. The screening process includes several SENP-1 inhibitors, including specific SENP-1 inhibitors (e.g., SUMO-2 Aldehyde, Momordin lc, streptonigrin, hinokiflavonem, and siRNAs of SENP-1) and nonspecific SENP-1 inhibitors (e.g., oleanolic acid, gallic acid), in N27 dopaminergic cells after the exposure of PFF for 24 hrs.

N27 cells [2] = experiment: Cell viability (MTT) assay after PFF exposure; conditions: N27 cells after PFF (1 μg/ml) exposure for 24 h; compared to PFF only control
From the text: (§2) Cell Viability Assay. The MTT assay is a colorimetric assay that is based on the conversion of water-soluble MTT (3-(4,5-dimethylthiazol-2-yl)-2,5-diphenyltetrazolium bromide) into formazan crystal by mitochondrial dehydrogenase enzymes, soluble in 100% DMSO. The resulting solution is purple in color, and the color intensity is proportional to the viable cells for each well in a 96-well plate. A variety of SENP-1 inhibitors, such as SUMO-2 aldehyde, Momordin lc, streptonigrin, hinokiflavone, oleanolic acid and siRNA of SENP-1, were treated in N27 cells after PFF (1 μg/ml) exposure for 24 h. After adding 5 mM MTT dye to cells, the color intensity in MTT assays was measured using a spectrophotometer (SpectraMax M5e, Molecular devices, Dover, USA), at 570 nm with a reference wavelength of 630 nm. The cells were incubated with the MTT reagent (ab211091, Abcam) at 37° C. for 3 h, followed by solubilizing the formazan crystals in solution.
In this study, numerous commercially available SENP-1 inhibitors were tested for the recovery effects from preformed fibrils of alpha-synuclein (PFF)-induced PD models in vitro. […]

N27 cells [3] = experiment: ROS level (CellROX deep red) after PFF treatment; conditions: compared to PFF only control
Protocol: (§3) ROS Levels and Thioflavin-T Assessment. The reactive oxygen species (ROS) is a released byproduct during oxidative stress. On the other hand, thioflavin-T is an assay used to understand the level of protein aggregation that can be detrimental to cell survival. In order to assess the level of oxidative stress, all the SENP-1 inhibitors treated cells were incubated in media containing 5 μg/mL of the ROS reagent CellROX deep red reagent (C10422, Thermo Fisher Scientific) and 25 μg/mL of thioflavin-T reagent (CAS: 2390-54-7, Acros Organics) at 37° C. for 30 min. The cells were then washed 3 times with warm phosphate-buffered saline (PBS) without Ca^2+ or Mg^2+ (137 mM NaCl, 2.7 mM KCl, 4.3 mM Na2HPO4, and 1.47 mM KH2PO4), and several images from each well were collected using EVOS FL Cell Imaging Systems (Invitrogen, MA, USA). A minimum of 2 wells were dedicated to each group, and the experiments were repeated 3-4 times independently (total replicated: n=8-10/group). The intensity of red fluorescence corresponding to ROS levels and green labels corresponding to protein aggregation was analyzed by blinded raters using ImageJ.

N27 dopaminergic cells = experiment: Screening of SENP-1 inhibitors (LDH, MTT, ROS, Thioflavin-T) in PFF-induced PD model in vitro; conditions: N27 dopaminergic cells after exposure to PFF for 24 hrs
From the text: as §2, §1
as §3, with “A minimum of 2 wells were dedicated to each group, and the experiments were repeated 3-4 times independently (total replicated: n=8-10/group).” left out, “ImageJ. […]” for “ImageJ.”

| Structure (SMILES) | cytotoxicity derived from PFF (LDH assay) (N27 cells [1]; N27 cells, PFF treatment, compared to PFF only control) | cell viability from PFF-mediated toxicity (MTT assay) (N27 cells [2]) | level of ROS (N27 cells [3]) | efficacy in preventing protein aggregation-mediated damage and reversing PFF-induced damage (LDH, MTT, ROS, Thioflavin-T assays) (N27 dopaminergic cells) | cytotoxicity derived from PFF (LDH assay) (N27 cells [1]) |
| --- | --- | --- | --- | --- | --- |
| COC1=C(N)C(=O)c2nc(-c3nc(C(=O)O)c(C)c(-c4ccc(OC)c(OC)c4O)c3N)ccc2C1=O [Streptonigrin, streptonigrin] | significantly reduced the cytotoxicity | significantly enhanced the cell viability | reduced the level of ROS | clearly efficacious | – |
| O=c1cc(-c2ccc(Oc3c(O)cc4oc(-c5ccc(O)cc5)cc(=O)c4c3O)cc2)oc2cc(O)cc(O)c12 [Hinokiflavone, hinokiflavone] | – | – | – | – | significantly reduced the cytotoxicity |
| O=C(O)c1cc(O)c(O)c(O)c1 [gallic acid] | – | – | – | did not show an efficacy | – |
| CC1(C)CC[C@]2(C(=O)O)CC[C@]3(C)C(=CC[C@@H]4[C@@]5(C)CC[C@H](O)C(C)(C)[C@@H]5CC[C@]43C)[C@@H]2C1 [oleanolic acid] | – | – | – | did not show an efficacy | – |
